Earlier results as cited in patent US10751294B1, “Development of an optimized avanafil-loaded invasomal transdermal film” (King Abdulaziz University, priority 2019, dated 2020).
Where two headings read alike, the source gives them in different places.

Key:
[1] = in water, methanol, and ethanol at 25° C.
[2] = not given; remark: listed apart in the source
[3] = not given; remark: listed apart in the source

Row | drug permeation enhanced (fold) (from invasomes) | drug permeation enhanced (fold) (from transfersomes) | solubility [1] | pKa (acidic) [2] | pKa (basic) [2] | log P [3] | SMILES
1 | 7.2 fold | 1.8 fold |  |  |  |  | O=C(O)CN(CC(=O)O)Cc1cc2c(cc1O)Oc1cc(O)c(CN(CC(=O)O)CC(=O)O)cc1C21OC(=O)c2ccccc21 [calcein]
2 |  |  | < 1000 µg/mL | 11.84 | 5.89 | 1.84 | COc1ccc(CN=c2[nH]c(N3CCC[C@H]3CO)ncc2C(=O)NCc2ncccn2)cc1Cl [AVA, Avanafil]
